The results in this text go back to ChEMBL document CHEMBL1158316, “Modulation of lipoxygenase activity by bacterial hopanoids” (J Nat Prod, 1997).

The structures appear in SMILES notation. The source made the active and inactive calls. No cut-off for these calls is given here.

In general, IC50 refers to the point on the concentration scale where inhibition reaches its midpoint.

Experiment [1] deals with Glycine max. Description: Inhibition of soybean 15-lipoxygenase assessed as rate of disappearance of dissolved oxygen at 25 uM relative to control. More on the design: scale not given: the % may be the effect or the level left.
The test system of experiment [2] is Glycine max. Description: Inhibition of soybean 15-lipoxygenase assessed as rate of disappearance of dissolved oxygen at 50 uM relative to control. The arrangement: scale not given: the % may be the effect or the level left.
Experiment [3] has as its system Glycine max. Description: (§1) Inhibition of soybean 15-lipoxygenase.
The nature of experiment [4]: Inhibition of cyclooxygenase assessed as rate of disappearance of dissolved oxygen at 2.4 uM relative to control. The arrangement: scale not given: the % may be the effect or the level left.
Experiment [5] deals with T1, Polyunsaturated fatty acid 5-lipoxygenase (Homo sapiens) (UniProt P09917).
T1 sequence (whole entry): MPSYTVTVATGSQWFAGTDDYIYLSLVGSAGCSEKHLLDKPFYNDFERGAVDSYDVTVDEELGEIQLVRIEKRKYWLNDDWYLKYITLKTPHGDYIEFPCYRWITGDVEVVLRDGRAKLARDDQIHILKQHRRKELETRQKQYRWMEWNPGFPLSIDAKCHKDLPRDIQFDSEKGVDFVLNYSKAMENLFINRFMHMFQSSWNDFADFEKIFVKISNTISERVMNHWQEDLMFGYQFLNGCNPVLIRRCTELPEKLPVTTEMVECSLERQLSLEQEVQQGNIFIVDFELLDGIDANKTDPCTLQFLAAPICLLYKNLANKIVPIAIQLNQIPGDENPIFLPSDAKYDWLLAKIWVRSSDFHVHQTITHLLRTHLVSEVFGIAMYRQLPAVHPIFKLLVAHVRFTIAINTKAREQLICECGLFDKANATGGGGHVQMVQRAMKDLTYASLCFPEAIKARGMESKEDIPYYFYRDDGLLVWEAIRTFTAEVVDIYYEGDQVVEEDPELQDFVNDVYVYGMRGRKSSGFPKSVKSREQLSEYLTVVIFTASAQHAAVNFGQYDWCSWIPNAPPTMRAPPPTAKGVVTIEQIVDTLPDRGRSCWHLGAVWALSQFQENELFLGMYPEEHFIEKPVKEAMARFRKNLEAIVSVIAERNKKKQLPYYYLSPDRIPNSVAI
Description: Inhibition of human recombinant 5-lipoxygenase assessed as rate of disappearance of dissolved oxygen at 25 uM relative to control. The arrangement: scale not given: the % may be the effect or the level left.

For experiment [6], the system named is Glycine max. Description: Inhibition of soybean 15-lipoxygenase assessed as rate of disappearance of dissolved oxygen at 12.5 uM relative to control. The arrangement: scale not given: the % may be the effect or the level left.
In experiment [7] the test system is Glycine max. Description: Inhibition of soybean 15-lipoxygenase assessed as rate of disappearance of dissolved oxygen at 6.75 uM relative to control. The arrangement: scale not given: the % may be the effect or the level left.
The target of experiment [8] is T1, Polyunsaturated fatty acid 5-lipoxygenase (Homo sapiens). Description: Inhibition of human recombinant 5-lipoxygenase assessed as rate of disappearance of dissolved oxygen at 50 uM relative to control. The arrangement: scale not given: the % may be the effect or the level left.
Experiment [9] can be described thus: Inhibition of cyclooxygenase assessed as rate of disappearance of dissolved oxygen at 25 uM relative to control. More on the design: scale not given: the % may be the effect or the level left.
For experiment [10], the system named is Glycine max. Description: Inhibition of soybean 15-lipoxygenase assessed as rate of disappearance of dissolved oxygen at 100 uM relative to control. More on the design: scale not given: the % may be the effect or the level left.
Experiment [11] can be described thus: Inhibition of cyclooxygenase assessed as rate of disappearance of dissolved oxygen at 50 uM relative to control. The arrangement: scale not given: the % may be the effect or the level left.
A short description of experiment [12]: as §1. More on the design: species or system Glycine max.

For `CC(=O)OC[C@H](OC(C)=O)[C@H](OC(C)=O)[C@@H](CC[C@@H](C)[C@H]1CC[C@]2(C)[C@H]3CC[C@@H]4[C@@]5(C)CCCC(C)(C)[C@@H]5CC[C@@]4(C)[C@]3(C)CC[C@@H]12)OC(C)=O`, the Activity in experiment [1] came out at 89%; in experiment [2] it was 114%. In [3], the result was inactive.
For the compound `COc1ccc2c(c1)c(CC(=O)O)c(C)n2C(=O)c1ccc(Cl)cc1`, in experiment [4], the Activity is 7%.
Regarding `C[C@H](CC[C@@H](O)[C@@H](O)[C@@H](O)CO[C@@H]1O[C@H](CO)[C@@H](O)[C@H](O)[C@H]1N)[C@H]1CC[C@]2(C)[C@H]3CC[C@@H]4[C@@]5(C)CCCC(C)(C)[C@@H]5CC[C@@]4(C)[C@]3(C)CC[C@@H]12`, the Activity in [1] was determined as 172%; in [2], 188%.
`C[C@H](CC[C@@H](O)[C@@H](O)[C@@H](O)CO[C@H]1[C@H](N)[C@@H](O)[C@H](O)[C@@]1(O)CO)[C@H]1CC[C@]2(C)[C@H]3CC[C@@H]4[C@@]5(C)CCCC(C)(C)[C@@H]5CC[C@@]4(C)[C@]3(C)CC[C@@H]12`: the values for the Activity in [1] and in experiment [2] were 151% and 250%, respectively.
With `O=C1CCN(c2ccccc2)N1`, the Activity in experiment [1] is 34%; in experiment [5] it was 55%.
As for `C[C@H](CC[C@@H](O)[C@@H](O)[C@@H](O)CO)[C@H]1CC[C@]2(C)[C@H]3CC[C@@H]4[C@@]5(C)CCCC(C)(C)[C@@H]5CC[C@@]4(C)[C@]3(C)CC[C@@H]12` [TETRAHYDROXYBACTERIOHOPANE], the Activity in experiment [6] amounted to 48%; in [7], 68%; in experiment [8] it was 97%; in [1], 15%; in experiment [2], 4%; in experiment [9], 102%. Besides, the Activity worked out at 98% in experiment [5], 11% in experiment [10] and 103% in experiment [11]. In experiment [12], this compound displayed a half-inhibitory concentration (IC50) of 10 µM.
